Measured values taken from patent US6482858B1, “(−)-hydroxycitric acid for wound healing and immunomodulation” (priority 2001, dated 2002).
Where two headings read alike, the source gives them in different places.

Key:
[1] = Single-subject trial of potassium HCA: skin health and psoriasis; format: in vivo, human; settings: middle-aged subject
From the text: The results in the above examples led us to question whether HCA might be useful as a supplement for individuals not in need of weight loss and not under obvious stress. To this end, a middle-aged subject ingested approximately 2 to 3 grams HCA in the form of the potassium salt twice daily for 10 days. They were instructed to report on effects other than those which were to be expected, i.e., effects other than appetite control. Two quite interesting findings typical of re-regulation of corticoid metabolism emerged from this crude trial. […] These effects were similar in kind, although greater in degree, than this subject had experienced in the past when experimenting with relatively large dosages of melatonin (5 to 20 mg taken at bedtime) and, when much younger, amino acid supplementation designed to improve growth hormone release. We interpreted this finding as indicative of the normalization of melatonin and growth hormone metabolism. None of the side effects typical of elevated melatonin supplementation, such as morning grogginess or nasal congestion, were noted. Second, this subject noticed an improvement in their psoriasis during the last few days of the trial. In this subject's past experience, supplements which tended to improve their overall immune response and skin tone—including melatonin—at the same time tended to worsen their psoriasis. Therefore, this subject's experience with HCA was in line with the reports in the published literature regarding the condition as representative of corticoid and circadian dysregulation.

[2] = molecular target: cortisol receptors (Homo sapiens, UniProt P04150); settings: cited from earlier work
[3] = cited from earlier work; for % Body H2O / % Ash, wet / % Fat, wet / % Protein, wet: mean; for % Body H2O: 52.6 mmol/kg diet, six weeks; for % Ash, wet / % Fat, wet / % Protein, wet: wet weight

cortisol receptors, sequence (P04150 whole entry): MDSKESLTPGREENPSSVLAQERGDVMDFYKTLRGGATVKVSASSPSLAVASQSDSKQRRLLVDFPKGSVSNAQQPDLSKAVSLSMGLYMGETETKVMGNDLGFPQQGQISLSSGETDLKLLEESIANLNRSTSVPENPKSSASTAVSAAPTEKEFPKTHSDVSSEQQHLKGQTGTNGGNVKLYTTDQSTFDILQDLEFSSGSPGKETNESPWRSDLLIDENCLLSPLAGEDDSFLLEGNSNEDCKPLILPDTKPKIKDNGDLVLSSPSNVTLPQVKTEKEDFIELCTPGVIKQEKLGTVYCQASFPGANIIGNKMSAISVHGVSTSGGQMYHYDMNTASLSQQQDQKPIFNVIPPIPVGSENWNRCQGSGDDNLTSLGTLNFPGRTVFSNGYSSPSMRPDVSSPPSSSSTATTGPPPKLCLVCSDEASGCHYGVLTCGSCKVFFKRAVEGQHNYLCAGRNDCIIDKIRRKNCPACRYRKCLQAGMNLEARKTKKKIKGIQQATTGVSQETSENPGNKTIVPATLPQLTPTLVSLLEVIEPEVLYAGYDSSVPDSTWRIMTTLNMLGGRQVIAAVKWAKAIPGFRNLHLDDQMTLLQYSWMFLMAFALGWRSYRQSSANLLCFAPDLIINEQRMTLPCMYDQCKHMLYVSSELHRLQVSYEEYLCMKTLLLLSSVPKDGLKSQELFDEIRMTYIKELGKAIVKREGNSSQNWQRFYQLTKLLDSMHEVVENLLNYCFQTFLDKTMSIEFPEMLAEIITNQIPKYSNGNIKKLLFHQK

O=C(O)CC(O)(C(=O)O)C(O)C(=O)O (single isomer, unassigned; (-)) [HCA, (−)-hydroxycitric acid]
Side effects typical of elevated melatonin supplementation (morning grogginess, nasal congestion) ([1]; 10 days): None | Psoriasis ([1]; approximately 2 to 3 grams twice daily for 10 days, last few days of the trial): improvement | Skin tone ([1]; approximately 2 to 3 grams twice daily, before the first week had passed): improved markedly

CC#C[C@]1(O)CC[C@H]2[C@@H]3CCC4=CC(=O)CCC4=C3[C@@H](c3ccc(N(C)C)cc3)C[C@@]21C [RU 486, mifepristone]
Plasma ACTH and cortisol ([2]; 10 mg/kg.day oral, 7-14 days): marked compensatory elevations | Subjects who developed generalized exanthem (skin rash) ([2]; 10 mg/kg.day oral, after 9 days of treatment): 8 of the 11 | Enhancement of immune function ([2]; high doses, normal volunteers, 7-14 days): does not result in measurable enhancement of immune function

O=C([O-])CC(O)(C(=O)[O-])C(O)C(=O)[O-].[Na+].[Na+].[Na+] (stereo not drawn) [Tri-NaHCA, trisodium (−)-hydroxycitrate]
% Body H2O ([3]; Zucker lean): 64.3% | % Ash, wet ([3]; Zucker lean): 4.9/NA % | % Fat, wet ([3]; Zucker lean): 8.05/NA % | % Protein, wet ([3]; Zucker lean): 22.0/NA % | % Body H2O ([3]; Zucker obese): 25.8% | % Ash, wet ([3]; Zucker obese): 2.6/NA % | % Fat, wet ([3]; Zucker obese): 59.8/NA % | % Protein, wet ([3]; Zucker obese): 11.8/NA % | Carcass protein and ash/mineral content compared with control ([3]; lean and obese animals): increased
